Results from ChEMBL document CHEMBL1201862, “PubChem BioAssay data set” (2004).
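Protocol summary: plate cells (96-well), add compound at 5 concentrations, incubate 48 h, interpolate endpoints linearly. Abbreviation: GI50, concentration required for 50% inhibition of growth.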 The source made the active and inactive calls. Rule as the data show it: active = GI50 up to about 1.1 µM and inactive = higher.

Experiments:
Assay in all cases: NCI-60 cell line screen, 48 h
M14 = system: M14
BT-549 = system: BT-549
NCI-H226 = system: NCI-H226
HL-60 = system: HL-60
Hs-578T = system: Hs-578T
SNB-19 = system: SNB-19
OVCAR-5 = system: OVCAR-5
SW-620 = system: SW-620
DU-145 = system: DU-145
LOX IMVI = system: LOX IMVI
OVCAR-3 = system: OVCAR-3
HOP-62 = system: HOP-62
SK-MEL-2 = system: SK-MEL-2
UACC-257 = system: UACC-257
K562 = system: K562
MOLT-4 = system: MOLT-4
U-251 = system: U-251
A498 = system: A498
HT-29 = system: HT-29
NCI-H460 = system: NCI-H460

Measured: GI50

CC(C)/C=N\n1c(N)c(C#N)c(C#N)c1C(C)C
inactive: M14 22.2 µM | BT-549 24.2 µM | NCI-H226 14.7 µM | HL-60 26.1 µM | Hs-578T 20.4 µM | SNB-19 34.9 µM | OVCAR-5 21.7 µM | SW-620 38.1 µM | DU-145 35.6 µM | LOX IMVI 19 µM | OVCAR-3 11.7 µM | HOP-62 31.1 µM | SK-MEL-2 18.2 µM | UACC-257 14.7 µM | K562 24 µM | MOLT-4 13.5 µM | U-251 28.9 µM | A498 17.5 µM | HT-29 33.3 µM

CSc1ccc(-c2cc(-c3nc4ccccc4[nH]3)no2)cc1
inactive: M14 20.4 µM | BT-549 19.6 µM | NCI-H226 40.5 µM | HL-60 21.6 µM | Hs-578T 37.1 µM | SNB-19 40.3 µM | OVCAR-5 > 100 µM | NCI-H460 18.4 µM | SW-620 37 µM | DU-145 13.6 µM | LOX IMVI 24.3 µM | OVCAR-3 22.1 µM | HOP-62 34.4 µM | SK-MEL-2 20.4 µM | UACC-257 30.2 µM | K562 22.1 µM | MOLT-4 8.34 µM | A498 30.8 µM | HT-29 24.8 µM

CC(=O)OCc1nc(C#N)c(N)o1
inactive: BT-549 > 100 µM | NCI-H226 > 100 µM | HL-60 > 100 µM | Hs-578T > 100 µM | SNB-19 > 100 µM | OVCAR-5 > 100 µM | NCI-H460 > 100 µM | SW-620 > 100 µM | DU-145 > 100 µM | LOX IMVI > 100 µM | OVCAR-3 > 100 µM | HOP-62 > 100 µM | SK-MEL-2 > 100 µM | UACC-257 > 100 µM | K562 > 100 µM | MOLT-4 > 100 µM | U-251 > 100 µM | A498 > 100 µM | HT-29 > 100 µM

O=C(Cc1ccccc1)c1ccc2[nH]c(=O)oc2c1
active: Hs-578T 1.03 µM
inactive: M14 47 µM | BT-549 48.6 µM | NCI-H226 1.22 µM | HL-60 50.4 µM | OVCAR-5 > 100 µM | NCI-H460 38.8 µM | SW-620 52.1 µM | DU-145 62.2 µM | LOX IMVI 52.1 µM | OVCAR-3 35.2 µM | HOP-62 90.6 µM | SK-MEL-2 32.6 µM | UACC-257 43.2 µM | K562 31 µM | MOLT-4 31.6 µM | U-251 16.8 µM | A498 > 100 µM | HT-29 37.5 µM

Cc1ccc(C2=Nn3c(nc4sc(C)c(C)c4c3=O)SC2)cc1
inactive: BT-549 > 100 µM | NCI-H226 > 100 µM | HL-60 > 100 µM | Hs-578T > 100 µM | OVCAR-5 > 100 µM | NCI-H460 > 100 µM | SW-620 > 100 µM | DU-145 > 100 µM | LOX IMVI > 100 µM | OVCAR-3 > 100 µM | HOP-62 64.1 µM | UACC-257 > 100 µM | K562 > 100 µM | MOLT-4 > 100 µM | U-251 > 100 µM | A498 > 100 µM | HT-29 > 100 µM

N#Cc1ccc(Oc2nc3ccc(C(F)(F)F)cc3nc2-c2ccccc2)cc1
inactive: M14 16.1 µM | BT-549 34.4 µM | HL-60 20.1 µM | Hs-578T 20.6 µM | SNB-19 21.8 µM | OVCAR-5 13.4 µM | NCI-H460 17.6 µM | SW-620 21.3 µM | DU-145 17.8 µM | LOX IMVI 27.2 µM | OVCAR-3 21.8 µM | HOP-62 20.3 µM | SK-MEL-2 19.5 µM | UACC-257 21.8 µM | K562 22.1 µM | MOLT-4 20 µM | U-251 17.2 µM | A498 15.7 µM | HT-29 16.7 µM

COC1CC(C)(N)C(O)C(C)O1 (centres undefined)
inactive: M14 > 100 µM | BT-549 > 100 µM | NCI-H226 > 100 µM | HL-60 > 100 µM | Hs-578T > 100 µM | SNB-19 > 100 µM | NCI-H460 > 100 µM | SW-620 > 100 µM | DU-145 > 100 µM | LOX IMVI > 100 µM | OVCAR-3 > 100 µM | HOP-62 > 100 µM | SK-MEL-2 > 100 µM | UACC-257 > 100 µM | K562 > 100 µM | MOLT-4 > 100 µM | U-251 > 100 µM | A498 > 100 µM | HT-29 > 100 µM

CNC(=O)/C=C/C1=CN2C(=O)c3ccc(C)c(O)c3NC(OC)C2C1 (centres undefined)
active: M14 < 0.0124 µM | BT-549 < 0.01 µM | NCI-H226 0.0141 µM | HL-60 0.0298 µM | Hs-578T < 0.0145 µM | SNB-19 < 0.0152 µM | OVCAR-5 0.0244 µM | NCI-H460 0.0135 µM | SW-620 < 0.0164 µM | DU-145 < 0.01 µM | LOX IMVI < 0.0142 µM | OVCAR-3 < 0.0134 µM | HOP-62 < 0.0143 µM | SK-MEL-2 0.0125 µM | UACC-257 < 0.013 µM | MOLT-4 0.0183 µM | U-251 < 0.0161 µM | A498 0.0533 µM | HT-29 < 0.0143 µM

CC(C)(C)OC(=O)NC(Cc1ccc(O)cn1)C(N)=O (centres undefined)
inactive: BT-549 > 100 µM | NCI-H226 > 100 µM | HL-60 > 100 µM | Hs-578T > 100 µM | SNB-19 > 100 µM | OVCAR-5 > 100 µM | NCI-H460 > 100 µM | SW-620 > 100 µM | DU-145 > 100 µM | LOX IMVI > 100 µM | OVCAR-3 > 100 µM | HOP-62 > 100 µM | UACC-257 > 100 µM | MOLT-4 > 100 µM | U-251 > 100 µM | A498 > 100 µM | HT-29 > 100 µM

CCN(CC)c1ccc(/C=C/c2ccnc3ccccc23)cc1
inactive: M14 > 100 µM | BT-549 > 100 µM | HL-60 > 100 µM | Hs-578T > 100 µM | SNB-19 > 100 µM | OVCAR-5 > 100 µM | NCI-H460 > 100 µM | SW-620 > 100 µM | DU-145 > 100 µM | LOX IMVI > 100 µM | OVCAR-3 > 100 µM | HOP-62 > 100 µM | SK-MEL-2 > 100 µM | UACC-257 > 100 µM | K562 > 100 µM | U-251 > 100 µM | A498 > 100 µM | HT-29 > 100 µM

CC(=O)O[C@H]1CC[C@@]2(C)C(=CC[C@@H]3[C@@H]2CC[C@]2(C)c4c(C)n[nH]c4C[C@@H]32)C1
inactive: M14 16 µM | BT-549 15.2 µM | NCI-H226 16.5 µM | HL-60 10.1 µM | Hs-578T 17.6 µM | SNB-19 19.5 µM | OVCAR-5 14.9 µM | NCI-H460 15.6 µM | SW-620 16.9 µM | DU-145 14.2 µM | LOX IMVI 31.5 µM | OVCAR-3 12.2 µM | HOP-62 21.1 µM | UACC-257 16.7 µM | K562 2.54 µM | MOLT-4 11.7 µM | U-251 15.3 µM | A498 20.3 µM | HT-29 10.3 µM

Cn1/c(=N\N=C2\C=C3CCCCC3(C)CC2)sc2ccccc21 (centres undefined)
inactive: M14 > 100 µM | BT-549 > 100 µM | NCI-H226 > 100 µM | HL-60 > 100 µM | Hs-578T > 100 µM | SNB-19 > 100 µM | OVCAR-5 > 100 µM | NCI-H460 > 100 µM | SW-620 > 100 µM | DU-145 > 100 µM | LOX IMVI > 100 µM | OVCAR-3 > 100 µM | HOP-62 > 100 µM | SK-MEL-2 > 100 µM | UACC-257 > 100 µM | K562 > 100 µM | U-251 > 100 µM | A498 > 100 µM | HT-29 > 100 µM

CCC[N+](C)(C)CCCNC(=O)c1c(O)c2ccccc2[nH]c1=O
inactive: BT-549 89.1 µM | NCI-H226 77.1 µM | HL-60 > 100 µM | Hs-578T > 100 µM | OVCAR-5 > 100 µM | NCI-H460 > 100 µM | SW-620 > 100 µM | DU-145 > 100 µM | LOX IMVI > 100 µM | OVCAR-3 > 100 µM | HOP-62 > 100 µM | SK-MEL-2 > 100 µM | UACC-257 > 100 µM | K562 > 100 µM | MOLT-4 > 100 µM | U-251 > 100 µM | A498 > 100 µM | HT-29 > 100 µM

CC(C)(C)OC(=O)CN1CCNCCN(CC(=O)OC(C)(C)C)CCNCC1
inactive: BT-549 > 100 µM | NCI-H226 > 100 µM | HL-60 36.2 µM | Hs-578T > 100 µM | SNB-19 > 100 µM | OVCAR-5 > 100 µM | NCI-H460 63.2 µM | SW-620 > 100 µM | DU-145 > 100 µM | LOX IMVI 86.7 µM | OVCAR-3 > 100 µM | HOP-62 > 100 µM | SK-MEL-2 > 100 µM | UACC-257 > 100 µM | K562 47 µM | MOLT-4 64.7 µM | U-251 78.2 µM | A498 > 100 µM | HT-29 33.3 µM

Cc1ccc([N+](=O)[O-])cc1S(=O)(=O)Nc1ccc(C2=NOC(c3ccccc3)C2)cc1 (centres undefined)
inactive: M14 4.11 µM | BT-549 12.4 µM | NCI-H226 24.9 µM | HL-60 5.12 µM | Hs-578T 19.8 µM | SNB-19 10.1 µM | OVCAR-5 25.4 µM | NCI-H460 5.52 µM | SW-620 6 µM | DU-145 12 µM | LOX IMVI 10.9 µM | OVCAR-3 3.33 µM | HOP-62 5.3 µM | SK-MEL-2 3.65 µM | UACC-257 14.7 µM | K562 1.96 µM | MOLT-4 2.61 µM | A498 4.03 µM | HT-29 6.78 µM
